Results published in ChEMBL document CHEMBL1255282, “Escherichia coli isolate coproducing 16S rRNA Methylase and CTX-M-type extended-spectrum beta-lactamase isolated from an outpatient in the United States” (2008).
In brackets after ≈: the same amount, converted by molar mass. Activity calls are given as the source filed them. No cut-off for these calls is given here.

Experiments:
Format in all cases: functional
Escherichia coli [1] = test: Antibacterial activity against 16S rRNA methylase RmtB and CTX-M-65 ESBL producing Escherichia coli isolate ECRB1 by Etest
Escherichia coli [2] = test: Antibacterial activity against 16S rRNA methylase rmtB and CTX-M-65 ESBL producing rifampin resistant Escherichia coli isolate ECRB1 by Etest
Escherichia coli [3] = test: Antibacterial activity against Escherichia coli DH10B harboring pBCSK expressing rmtB gene by Etest
Escherichia coli [4] = test: Antibacterial activity against 16S rRNA methylase RmtB and CTX-M-65 ESBL producing Escherichia coli DH10B by Etest

| Compound | Activity (Escherichia coli [1]) | MIC (Escherichia coli [1]) [µg/mL] | MIC (Escherichia coli [2]) [µg/mL] | MIC (Escherichia coli [3]) [µg/mL] | MIC (Escherichia coli [4]) [µg/mL] |
| --- | --- | --- | --- | --- | --- |
| O=C(O)c1cn(C2CC2)c2cc(N3CCNCC3)c(F)cc2c1=O | Active | – | – | – | – |
| NCC[C@H](O)C(=O)N[C@@H]1C[C@H](N)[C@@H](O[C@H]2O[C@H](CN)[C@@H](O)[C@H](O)[C@H]2O)[C@H](O)[C@H]1O[C@H]1O[C@H](CO)[C@@H](O)[C@H](N)[C@H]1O [AMIKACIN] | – | > 256 | ≥ 128 | > 256 | ≥ 128 |
| CO/N=C(\C(=O)N[C@@H]1C(=O)N2C(C(=O)O)=C(COC(C)=O)CS[C@H]12)c1csc(N)n1 [CEFOTAXIME] | – | 64 (≈ 141 µM) | 96 (≈ 211 µM) | – | 96 (≈ 211 µM) |
| NC[C@H]1O[C@H](O[C@H]2[C@H](O)[C@@H](O[C@H]3O[C@H](CO)[C@@H](O)[C@H](N)[C@H]3O)[C@H](N)C[C@@H]2N)[C@H](N)C[C@@H]1O [TOBRAMYCIN] | – | > 256 | ≥ 128 | > 256 | ≥ 128 |
| GENTAMICIN | – | > 256 | > 128 | > 256 | > 128 |
